Reference: patent publication US12240844B2 (Voronoi, Inc., priority 2019, dated 2025)

How the values were obtained:
[1] = system: MDA-MB-468 cell line; test: MDA-MB-468 cancer cell proliferation inhibition (Cell Titer-Glo); assay type: cell-based; settings: Homo sapiens, MDA-MB-468 triple-negative breast cancer cell line, 72 hours
Protocol: In order to evaluate the cancer cell proliferation inhibitory activity of the compounds of the present invention, the following experiments were performed.
To evaluate the cancer cell proliferation inhibitory effect, the cell growth rate analysis was performed while culturing MDA-MB-231 cell line (Korean Cell Line Bank #30026) and MDA-MB-468 cell line as the triple-negative breast cancer cell line, and SHP-77 (ATCC #CRL-2195) as the small cell lung cancer cell line in DMEM (HyClone #SH30243) and RPMI medium (HyClone #SH3027.01), respectively. More specifically, the cell lines were each plated at 2000 cells/100 μl in each well of a 96-well flat-bottom plate (coming #3903), and then the example compounds having eleven concentrations which were diluted by ⅓ so that the final concentrations were 10.000000, 3.333333, 1.111111, 0.370370, 0.123457, 0.041152, 0.013717, 0.004572, 0.001524, 0.000508 and 0.000169 μM were treated. After 72 hours, 100 μl of Cell Titer-Glo (Promega G7573) was treated, incubated at RT for 10 minutes, and then luminescence was measured using a microplate reader. The measured luminescence degree was calculated as GI50 using Prism (version 8.2 GraphPad) software.
In the table below, the following designations were used for the evaluation of proliferation inhibitory activity.

[2] = molecular target: LRRK2 (Homo sapiens, UniProt Q5S007); test: LRRK2 enzyme inhibition, ADP-Glo kinase assay; assay type: biochemical; parameters: purchased Invitrogen PR8604B
Chain of LRRK2 (Q5S007 970-2527 limits assumed): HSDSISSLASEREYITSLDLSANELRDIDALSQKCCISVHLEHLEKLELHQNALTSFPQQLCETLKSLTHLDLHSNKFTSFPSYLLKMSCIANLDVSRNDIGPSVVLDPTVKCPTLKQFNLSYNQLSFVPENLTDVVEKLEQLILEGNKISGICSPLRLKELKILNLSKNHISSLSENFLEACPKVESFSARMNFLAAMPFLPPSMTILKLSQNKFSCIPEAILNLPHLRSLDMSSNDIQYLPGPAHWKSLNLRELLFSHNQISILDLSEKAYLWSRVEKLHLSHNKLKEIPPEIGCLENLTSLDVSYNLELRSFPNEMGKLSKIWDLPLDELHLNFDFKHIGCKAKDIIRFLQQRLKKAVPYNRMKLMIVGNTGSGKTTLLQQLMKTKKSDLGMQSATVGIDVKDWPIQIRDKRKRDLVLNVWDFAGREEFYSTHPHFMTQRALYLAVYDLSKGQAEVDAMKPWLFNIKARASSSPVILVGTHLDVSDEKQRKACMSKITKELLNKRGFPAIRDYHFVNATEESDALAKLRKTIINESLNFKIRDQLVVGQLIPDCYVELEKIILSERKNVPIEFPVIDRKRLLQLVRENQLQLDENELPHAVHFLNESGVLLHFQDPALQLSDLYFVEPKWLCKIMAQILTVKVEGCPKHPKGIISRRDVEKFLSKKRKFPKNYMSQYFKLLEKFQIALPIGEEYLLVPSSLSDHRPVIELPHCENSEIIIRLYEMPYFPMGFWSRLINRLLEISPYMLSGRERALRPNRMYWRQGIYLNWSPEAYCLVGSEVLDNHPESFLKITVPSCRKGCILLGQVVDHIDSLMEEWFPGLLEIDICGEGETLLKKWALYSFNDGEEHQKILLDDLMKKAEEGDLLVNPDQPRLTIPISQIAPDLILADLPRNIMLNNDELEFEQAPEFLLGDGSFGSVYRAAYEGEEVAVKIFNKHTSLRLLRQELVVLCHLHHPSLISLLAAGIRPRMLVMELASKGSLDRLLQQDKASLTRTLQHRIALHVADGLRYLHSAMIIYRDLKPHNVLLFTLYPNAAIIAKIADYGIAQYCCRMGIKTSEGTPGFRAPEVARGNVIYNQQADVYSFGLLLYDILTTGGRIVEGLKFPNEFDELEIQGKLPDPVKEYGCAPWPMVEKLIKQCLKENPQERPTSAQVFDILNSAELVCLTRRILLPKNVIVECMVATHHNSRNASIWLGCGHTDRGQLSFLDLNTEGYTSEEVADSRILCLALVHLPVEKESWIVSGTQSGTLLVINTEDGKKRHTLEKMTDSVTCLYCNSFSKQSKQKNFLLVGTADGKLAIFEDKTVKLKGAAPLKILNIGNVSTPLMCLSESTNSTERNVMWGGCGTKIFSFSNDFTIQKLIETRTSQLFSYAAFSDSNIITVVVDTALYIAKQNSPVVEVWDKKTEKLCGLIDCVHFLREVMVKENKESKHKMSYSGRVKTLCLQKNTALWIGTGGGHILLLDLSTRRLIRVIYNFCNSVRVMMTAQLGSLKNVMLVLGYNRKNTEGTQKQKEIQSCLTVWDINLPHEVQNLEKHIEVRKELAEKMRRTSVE
Method in brief: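 Purified human LRRK2 (25 ng) in 40 mM Tris-HCl pH7.4, 20 mM MgCl2, 0.5 mg/ml BSA, 50 μM DTT with 10 μM ATP and substrate ([…]), 2 h at 25° C. Final compound 50 to 0.000001024 μM, 12-point dilution. ADP-Glo luminescence vs solvent control; IC50 (nM).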

[3] = molecular target: LRRK2 (G2019S) (Homo sapiens, UniProt Q5S007, G2019S); test: LRRK2 G2019S enzyme inhibition, ADP-Glo kinase assay; assay type: biochemical; parameters: purchased SignalChem L10-12GG
Chain of LRRK2 (G2019S) (Q5S007 970-2527 G2019S limits assumed): as the sequence (Q5S007 970-2527 limits assumed) above, with G1050S counted along it
Method in brief: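 Purified human LRRK2 G2019S (16 ng) with 25 μM ATP and 0.2 μg substrate, 2 h at 25° C in 40 mM Tris-HCl pH 7.4, 20 mM MgCl2, 0.5 mg/ml BSA, 50 μM DTT; compound at 12 final concentrations from 50 μM downward. ADP-Glo luminescence versus solvent control gave IC50 (nM).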

[4] = molecular target: T1, human GST-CLK1 (129-end) (Homo sapiens, UniProt P49759); test: GST-CLK1 enzyme inhibition, ADP-Glo kinase assay; assay type: biochemical; settings: ATP 10 uM
T1 construct: purified human GST-CLK1 (129-end, Signalchem) enzyme; GST; purchased Signalchem
T1 sequence (P49759 129-484 limits assumed): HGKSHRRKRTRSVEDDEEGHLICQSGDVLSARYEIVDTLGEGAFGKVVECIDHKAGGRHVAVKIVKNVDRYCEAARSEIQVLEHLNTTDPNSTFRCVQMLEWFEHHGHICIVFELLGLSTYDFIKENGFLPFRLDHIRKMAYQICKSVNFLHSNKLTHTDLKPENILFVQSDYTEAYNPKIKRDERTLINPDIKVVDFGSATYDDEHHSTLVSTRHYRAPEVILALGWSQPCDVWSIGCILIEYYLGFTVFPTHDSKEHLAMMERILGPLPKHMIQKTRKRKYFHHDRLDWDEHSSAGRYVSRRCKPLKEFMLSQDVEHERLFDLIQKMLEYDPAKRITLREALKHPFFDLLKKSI
Method in brief: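 GST-CLK1 (129-end, 3 ng) reacted with 10 uM ATP and substrate in 40 mM Tris-HCl pH 7.4, 20 mM MgCl2, 0.5 mg/mL BSA, 50 uM DTT, 1 h at 25° C. ADP-Glo luminescence normalised to solvent control; IC50 from triplicate data.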

[5] = molecular target: T2, human GST-DYRK1A (full length) (Homo sapiens, UniProt Q13627); test: GST-DYRK1A enzyme inhibition, ADP-Glo kinase assay; assay type: biochemical; settings: read-out: DYRK1 IC50
T2 construct: purified human GST-DYRK1A (full length, Thermo scientifics) enzyme; GST; purchased Thermo scientifics
Method in brief: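 Full-length human GST-DYRK1A (10 ng) incubated with 10 uM ATP and specific substrate for 1 h at 25° C in 40 mM Tris-HCl pH 7.4, 20 mM MgCl2, 0.5 mg/mL BSA, 50 uM DTT. ADP formation read by ADP-Glo luminescence; IC50 (nM) versus solvent control, triplicate.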

[6] = system: MDA-MB-231 cell line; test: MDA-MB-231 cancer cell proliferation inhibition (Cell Titer-Glo); assay type: cell-based; settings: Homo sapiens, MDA-MB-231 triple-negative breast cancer cell line, 72 hours
Method in brief: (§1)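 GI50 comes from CellTiter-Glo luminescence, read 10 min after reagent addition at RT, following 72 h compound treatment. Eleven concentrations were used (⅓ steps, highest 10 μM final) on 2000 cells/well. MDA-MB-231 and MDA-MB-468 were grown in DMEM, SHP-77 in RPMI.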

[7] = system: SHP-77; test: SHP-77 cancer cell proliferation inhibition (Cell Titer-Glo); assay type: cell-based; settings: Homo sapiens, SHP77, SHP-77 small cell lung cancer cell line, 72 hours
Method in brief: as §1

[8] = system: THP-1; test: THP-1 GI50 (Table 4, method not given); assay type: cell-based; settings: Homo sapiens; THP-1 cells
[9] = system: TNF-α; test: TNF-α secretion inhibition in LPS-treated THP-1 cells (ELISA); assay type: cell-based; settings: Homo sapiens, compound 0.5 μM, LPS 500 ng/ml, 24 hours, read-out: THP-1/TNF-a (% inhib)
Protocol: (§2) In order to evaluate the cytokine secretion inhibitory efficacy of mononuclear cells, THP-1 cells (ATCC, #TIB-202) as a human-derived monocyte cell line were cultured in RPMI-1640 (Hyclone, SH30027.01) media in which 10% fetal bovine serum (Hyclone, SH30084.03), 1% penicillin streptomycin (Welgene, LS202-02) and 50 μM 2-Mercaptoethanol (Gibco, #21985023) were contained. In the test, 1.5-2×10^5 cells/250 μl per each well were dispensed in a 48-well plate (SPL, #30048) and incubated in an incubator at 37° C. and 5% CO2 for 16 hours, and then the compounds were diluted in DMSO so that the final concentration was 0.5 μM. It was treated with Lipopolysaccharides (LPS) (sigma, #L6529) […]. After treatment with the compound, the LPS was treated so that the final concentration was 500 ng/ml, and then the cell culture fluid was collected after culturing for 24 hours, and the degrees of the cytokines IL-6 (R&D system, #D6050) and TNF-α (R&D system, #DTA00D) contained in the culture fluid were collected using each ELISA kit. After performing the experiment according to the manufacturer's instructions, the absorbance at 450 nm was measured and analyzed using a microplate reader.

[10] = system: IL-6; test: IL-6 secretion inhibition in LPS-treated THP-1 cells (ELISA); assay type: cell-based; settings: Homo sapiens, compound 0.5 μM, LPS 500 ng/ml, 24 hours, read-out: THP1/IL6 (% inhib)
Protocol: as §2

Compound | GI50 [1] | IC50 [2] | IC50 [3] | IC50 [4] | IC50 [5] | GI50 [6] | GI50 [7] | GI50 [8] | inhibition at 0.5 µM [9] | inhibition at 0.5 µM [10]
N#Cc1c[nH]c2nc(Nc3ccc(C(=O)N4CCOCC4)c4c3OCCO4)cc(NC3CCCC3)c12 [Example 112, 4-(cyclopentylamino)-6-((8-(morpholine-4-carbonyl)-2,3-dihydrobenzo[b] [1,4]dioxin-5-yl)amino)-1H-pyrrolo[2,3-b]pyridine-3-carbonitrile] | 0.051 to 0.1 µM | < 0.1 µM | < 0.1 µM | 0.301 to 1 µM | 0.301 to 1 µM | – | – | – | – | –
N#Cc1c[nH]c2nc(Nc3ccc(C(=O)N4CCC(N5CCOCC5)CC4)c4c3OCCO4)cc(NC3CCCCC3)c12 [Example 149, 4-(cyclohexylamino)-6-((8-(4-morpholinopiperidine-1-carbonyl)-2,3-dihydrobenzo [b] [1,4]dioxin-5-yl)amino)-1H-pyrrolo[2,3-b]pyridine-3-carbonitrile] | 0.101 to 0.3 µM | – | – | 0.301 to 1 µM | 0.301 to 1 µM | – | – | – | – | –
N#Cc1c[nH]c2nc(Nc3ccc(C(=O)N4CCOCC4)c4c3OCCO4)cc(NC3CCCCC3)c12 [Example 150, N^4-(cyclohexylamino)-N^6-((8-(morpholine-4-carbonyl)-2,3-dihydrobenzo [b] [1,4]dioxin-5-yl)amino)-1H-pyrrolo[2,3-b]pyridine-3-carbonitrile] | 0.051 to 0.1 µM | – | – | 0.301 to 1 µM | 0.301 to 1 µM | – | – | – | – | –
COc1cc(S(=O)(=O)N2CCC(N3CCOCC3)CC2)ccc1Nc1cc(NC2CCCCC2)c2c(C#N)c[nH]c2n1 [Example 151, N^4-(cyclohexylamino)-N^6-((2-methoxy-4-((4-morpholinopiperidin-1-yl)sulfonyl)phenyl)amino)-1H-pyrrolo[2,3-b]pyridine-3-carbonitrile] | 0.101 to 0.3 µM | – | – | 0.301 to 1 µM | 0.301 to 1 µM | 0.051 to 0.1 µM | 0.051 to 0.1 µM | – | – | –
CNc1cc(Nc2ccc(C(=O)N3CCOCC3)c3c2OCCO3)nc2[nH]cc(C(F)(F)F)c12 [Example 152, (8-((4-(methylamino)-3-(trifluoromethyl)-1H-pyrrolo[2,3-b]pyridin-6-yl)amino)-2,3-dihydrobenzo [b] [1,4]dioxin-5-yl)(morpholino) methanone] | 0.101 to 0.3 µM | < 0.1 µM | < 0.1 µM | < 0.1 µM | < 0.1 µM | – | – | – | – | –
CCNc1cc(Nc2ccc(C(=O)N3CCOCC3)c3c2OCCO3)nc2[nH]cc(C(F)(F)F)c12 [Example 153, (8-((4-(ethylamino)-3-(trifluoromethyl)-1H-pyrrolo[2,3-b]pyridin-6-yl)amino)-2,3-dihydrobenzo[b] [1,4]dioxin-5-yl)(morpholino) methanone] | – | < 0.1 µM | 0.101 to 0.3 µM | < 0.1 µM | < 0.1 µM | – | – | 14.4 µM | 40.4% | 32.7%
